Results: US20210008149A1, “WNT5A PEPTIDES IN REDUCTION OF CANCER STEM CELLS” (WNTRESEARCH AB, priority 2017, published 2021)
Read-outs that look alike come from different tables or passages of the source.

Key:
[1] = test system: human HT29 colon cancer cells; experiment: CellTiter-Blue fluorescence cell viability assay; settings: for IC50: read-out: IC50 value, cell viability, from dose-response curves
Procedure: (§10) Colon cancer HT29 cells were treated with either FOLFOX alone (green triangles), 5-FU alone (orange triangles), oxaliplatin alone (black squares), Foxy-5 alone (red squares) or FOLFOX+Foxy-5 (blue circles). The cytotoxic effects of these different treatments were evaluated by CellTiter-Blue™ fluorescence cell viability assay. […] The data are normalized and shown as means±SEM.

colon cancer cells [2] = experiment: In vitro treatment of colon cancer cells (Mehdawi et al., 2016); assay type: cell-based; settings: in vitro conditions, inventors' own observation
[3] = test system: Caco-2 colon cancer cells; experiment: Caco-2 colon cancer xenograft in nude mice, tumours analysed by IHC and mRNA; assay type: in vivo; settings: Caco-2-derived tumours
Source text: (§1) Representative photos from saline- and Foxy-5-treated animals are presented. From each such slide, 4 boxes were put on top of the stained tissue and for each of them the ALDH staining was scored as a percentage of stained cells multiplied by the staining intensity. The following score was used for percentage stained cells; 0 for positive stained cells <5%, 1 for positive cells 5-25%, 2 for positive cells 26-50%, 3 for positive cells 51-75%, 4 for positive cells >75%.
(§2) For staining intensities, the stained areas were scored as; 1 for weak staining, 2 for medium staining and 3 for strong staining. For each box a final score was obtained by multiplying the score for percentage of positively stained cells with the score for staining intensity. Finally, a mean value was obtained from the 4 boxes for each tumour. The same scoring protocol was then used for all IHC analyses presented in the present study.
(§3) Representative images from vehicle (saline) and Foxy-5-treated animals are presented. From each such slide, 6 boxes were randomly put on top of the stained tissue and for each of them the ALDH staining was scored as a percentage of stained cells multiplied by the staining intensity. The following score was used for percentage stained cells; 0 for positive stained cells <5%, 1 for positive cells 5-25%, 2 for positive cells 26-50%, 3 for positive cells 51-75%, 4 for positive cells >75%.
(§4) For staining intensities, the stained areas were scored as; 1 for weak staining, 2 for medium staining and 3 for strong staining. For each box a final score was obtained by multiplying the score for percentage of positively stained cells with the score for staining intensity. Finally, a mean value was obtained from the 6 boxes for each tumour sample. The same scoring protocol was then used for all IHC analyses presented in the present study.
(§5) Tumours from two different human colon cancer cell types HT29 and Caco-2 cells were examined by immunohistochemistry (IHC) and mRNA (see FIG. 1).
(§6) On day 0: Subcutaneous injections of HT29 or Caco-2 colon cancer cells in nude mice were done.
(§7) On day 7 after tumours have been established in the mice, intraperitoneal (I.P) injections of vehicle (saline) alone (gr 1) or Foxy-5 (2 μg/g; gr 2) were done.
(§8) On days 9-23 tumour growth and animal weight was monitored—then +8 I.P. injections every 2nd day of either vehicle alone (gr 1) or Foxy-5 (2 μg/g; gr 2).
(§9) On day 24 the two types of tumours (Caco-2 and HT29 derived) (divided in two parts of which one was fixed and the other frozen at −80° C.) were analyzed by IHC for their protein expression of COX-2, 15PGDH, β-catenin, Ascl2, ALDH and Dckl1 and for their mRNA content of ALDH and Dckl1 (ALDH is a general stem cell marker and Dck1 is a specific marker for colon CSCs).

HT29 colon cancer cells = experiment: HT29 colon cancer xenograft in nude mice, tumours analysed by IHC and mRNA; assay type: in vivo; settings: HT29-derived tumours
Source text: as §1, §2, §3, §4, §5, §6, §7, §8, §9

[4] = test system: human HT29 colon cancer cells
Procedure: as §10

colon cancer cells [5] = settings: in vitro; cited from earlier work
[6] = test system: colon cancer xenograph tissue; experiment: Colon cancer xenograft tissue (cell line not stated), IHC of COX-2 and 15-PGDH; assay type: in vivo, nude mice; settings: Foxy-5 2 μg/g I.P., vs vehicle
Source text: The IHC stainings were scored exactly as described in detail for the IHC staining in FIG. 1.
Representative images from vehicle- and Foxy-5-treated animals are presented. From each such slide 6 boxes were put on top of the stained tissue and for each of them the Cox-2 staining was scored as a percentage of stained cells multiplied by the staining intensity as described in detail for FIG. 2.
Representative images from vehicle- and Foxy-5-treated animals are presented. From each such slide 6 boxes were put on top of the stained tissue and for each of them the 15-PGDH staining was scored as a percentage of stained cells multiplied by the staining intensity as described in detail for FIG. 2.
On day 0: Subcutaneous injections of HT29 or Caco-2 colon cancer cells in nude mice were done. […]
as §8, §9

[7] = Foxy-5 2 μg/g I.P. every 2nd day, day 7-23, IHC and mRNA, day 24, vs vehicle
[8] = Foxy-5 2 μg/g I.P., vs vehicle-treated mice

Question: For `Nc1nc2c(c(=O)[nH]1)N(C=O)C(CNc1ccc(C(=O)N[C@@H](CCC(=O)O)C(=O)O)cc1)CN2` (stereo partly drawn) [folinic acid], which “cytotoxic effect on cell viability” value ([1]; monotherapy) is on record?
Answer: The value was “no cytotoxic effect”.

Question: For `O=c1[nH]cc(F)c(=O)[nH]1` [5-FU, 5-fluorouracil], which IC50 [1] is on record?
Answer: Its IC50 is 6.8 µM.

Question: For MDGCEL [Foxy-5], which “number of CSCs” value (colon cancer cells [2]) is on record?
Answer: The value was “not been able to detect any reduction”.

Question: What about the “active β-catenin nuclei expression” value ([3]; IHC, Foxy-5 2 μg/g I.P.) of the same molecule?
Answer: The value was “Decreased”.

Question: And the “β-catenin downstream target Ascl2 protein expression” value ([3]; IHC, Foxy-5 2 μg/g I.P.)?
Answer: Its value is “reductions”.

Question: And the “expression of the two stem cell biomarkers (ALDH and Dck1)” value [3, 7]?
Answer: The value was “significantly reduce”.

Question: What about the tumour volume [3, 8] of the same molecule?
Answer: The tumour volume was “reductions”.

Question: What about the “active β-catenin nuclei expression” value (HT29 colon cancer cells; IHC, Foxy-5 2 μg/g I.P.) of the same molecule?
Answer: Its value is “Decreased”.

Question: And the “β-catenin downstream target Ascl2 protein expression” value (HT29 colon cancer cells; IHC, Foxy-5 2 μg/g I.P.)?
Answer: The value was “reductions”.

Question: And the “expression of the two stem cell biomarkers (ALDH and Dck1)” value (HT29 colon cancer cells; [7])?
Answer: Its value is “significantly reduce”.

Question: And the tumour volume (HT29 colon cancer cells; [8])?
Answer: The tumour volume was “reductions”.

Question: What about the “effect on the inhibitory effect of FOLFOX on cell viability” value ([1]; combined with FOLFOX) of the same molecule?
Answer: Its value is “do not enhance or reduce”.

Question: What about the “IC50 value, cell viability” value ([1]; from dose-response curves) of the same molecule?
Answer: The value was “no IC50 value could be determined”.

Question: And the “cytotoxic effect on cell viability” value [4]?
Answer: The value was “no cytotoxic effect”.

Question: And the “expression of the PGE2 and lipoxin degrading enzyme 15-PGDH” value (colon cancer cells [5])?
Answer: Its value is “up-regulate”.

Question: And the “expression of the PGE2 producing enzyme COX-2” value (colon cancer cells [5])?
Answer: Its value is “decrease”.

Question: What about the β-catenin signalling (colon cancer cells [5]) of the same molecule?
Answer: Its β-catenin signalling is “reduction”.

Question: And the “PGE2 degrading enzyme 15-PGDH expression” value [6]?
Answer: Its value is “increase”.

Question: What about the “expression of the PGE2 generating enzyme COX-2” value [6] of the same molecule?
Answer: The value was “decrease”.

Question: Which IC50 [1] does the source give for `O=C1[O][Pt]2([NH][C@@H]3CCCC[C@H]3[NH]2)[O]C1=O` [oxaliplatin] here?
Answer: Its IC50 is 3.4 µM.

B1: WNT5A protein: full length WNT5A protein according to SEQ ID NO: 1, a non-canonical Wnt ligand (protein, listed as Homo sapiens)
chain: MKKSIGILSPGVALGMAGSAMSSKFFLVALAIFFSFAQVVIEANSWWSLGMNNPVQMSEVYIIGAQPLCSQLAGLSQGQKKLCHLYQDHMQYIGEGAKTGIKECQYQFRHRRWNCSTVDNTSVFGRVMQIGSRETAFTYAVSAAGVVNAMSRACREGELSTCGCSRAARPKDLPRDWLWGGCGDNIDYGYRFAKEFVDARERERIHAKGSYESARILMNLHNNEAGRRTVYNLADVACKCHGVSGSCSLKTCWLQLADFRKVGDALKEKYDSAAAMRLNSRGKLVQVNSRFNSPTTQDLVYIDPSPDYCVRNESTGSLGTQGRLCNKTSEGMDGCELMCCGRGYDQFKTVQTERCHCKFHWCCYVKCKKCTEIVDQFVCK
Question: For B1, which “number of CSCs” value (colon cancer cells [2]) is on record?
Answer: The value was “not been able to detect any reduction”.

Question: And the “expression of the PGE2 and lipoxin degrading enzyme 15-PGDH” value (colon cancer cells [5])?
Answer: The value was “up-regulate”.

Question: What about the “expression of the PGE2 producing enzyme COX-2” value (colon cancer cells [5]) of the same molecule?
Answer: The value was “decrease”.

Question: And the β-catenin signalling (colon cancer cells [5])?
Answer: The β-catenin signalling was “reduction”.
